In brackets after ≈: the same amount, converted by molar mass.
Tests used:
Assay type in all cases: functional
Escherichia coli [1] = assay: Antimicrobial activity against lacZ-negative, Nalidixic acid-, rifampicin-resistant Escherichia coli EC600 by Etest
Klebsiella pneumoniae [2] = assay: Antimicrobial activity against Klebsiella pneumoniae isolate 048 expressing beta-lactamase KPC-2, DHA-1, qnrB4 and armA by Etest
Escherichia coli [3] = assay: Antimicrobial activity against Escherichia coli isolate CKP048 transconjugant harboring beta-lactamase KPC-2, DHA-1, qnrB4 and armA by Etest
Escherichia coli [4] = assay: Antimicrobial activity against lacZ-negative, Nalidixic acid-, rifampicin-resistant Escherichia coli EC600 by Etest in presence of beta-lactamase inhibitor Tazobactam
Escherichia coli [5] = assay: Antimicrobial activity against Escherichia coli isolate CKP048 transconjugant harboring beta-lactamase KPC-2, DHA-1, qnrB4 and armA by Etest in presence of beta-lactamase inhibitor Tazobactam
Klebsiella pneumoniae [6] = assay: Antimicrobial activity against Klebsiella pneumoniae isolate 048 expressing beta-lactamase KPC-2, DHA-1, qnrB4 and armA by Etest in presence of beta-lactamase inhibitor Tazobactam

Compound C[C@@H](O)[C@H]1C(=O)N2C(C(=O)O)=C(S[C@@H]3CN[C@H](C(=O)Nc4cccc(C(=O)O)c4)C3)[C@H](C)[C@H]12 has an MIC (Escherichia coli [1]) of 0.016 µg/mL (≈ 0.0336 µM), an MIC (Klebsiella pneumoniae [2]) of 32 µg/mL (≈ 67.3 µM) and an MIC (Escherichia coli [3]) of 8 µg/mL (≈ 16.8 µM).
For NCC[C@H](O)C(=O)N[C@@H]1C[C@H](N)[C@@H](O[C@H]2O[C@H](CN)[C@@H](O)[C@H](O)[C@H]2O)[C@H](O)[C@H]1O[C@H]1O[C@H](CO)[C@@H](O)[C@H](N)[C@H]1O [AMIKACIN], the MIC (Escherichia coli [1]) was 1 µg/mL (≈ 1.71 µM), the MIC (Klebsiella pneumoniae [2]) was greater than 256 µg/mL and the MIC (Escherichia coli [3]) was greater than 256 µg/mL.
Work on CO[C@@]1(NC(=O)Cc2cccs2)C(=O)N2C(C(=O)O)=C(COC(N)=O)CS[C@@H]21 [CEFOXITIN] yielded an MIC (Escherichia coli [1]) of 2 µg/mL (≈ 4.68 µM), an MIC (Klebsiella pneumoniae [2]) of 256 µg/mL (≈ 599 µM) and an MIC (Escherichia coli [3]) of 128 µg/mL (≈ 299 µM).
For CC(C)(O/N=C(\C(=O)N[C@@H]1C(=O)N2C(C(=O)[O-])=C(C[n+]3ccccc3)CS[C@H]12)c1csc(N)n1)C(=O)O [CEFTAZIDIME], the MIC (Escherichia coli [1]) was 0.064 µg/mL (≈ 0.117 µM), the MIC (Klebsiella pneumoniae [2]) was 96 µg/mL (≈ 176 µM) and the MIC (Escherichia coli [3]) was 32 µg/mL (≈ 58.5 µM).
Compound C[C@@H](O)[C@H]1C(=O)N2C(C(=O)O)=C(SCCNC=N)C[C@H]12 [IMIPENEM ANHYDROUS] has an MIC (Escherichia coli [1]) of 0.25 µg/mL (≈ 0.835 µM), an MIC (Klebsiella pneumoniae [2]) greater than 32 µg/mL and an MIC (Escherichia coli [3]) of 3 µg/mL (≈ 10 µM).
In the case of C[C@@H](O)[C@H]1C(=O)N2C(C(=O)O)=C(S[C@@H]3CN[C@H](C(=O)N(C)C)C3)[C@H](C)[C@H]12 [MEROPENEM], the MIC (Escherichia coli [1]) was 0.094 µg/mL (≈ 0.245 µM), the MIC (Klebsiella pneumoniae [2]) was greater than 32 µg/mL and the MIC (Escherichia coli [3]) was 2 µg/mL (≈ 5.22 µM).
CCN1CCN(C(=O)N[C@@H](C(=O)N[C@@H]2C(=O)N3[C@@H]2SC(C)(C)[C@@H]3C(=O)O)c2ccccc2)C(=O)C1=O [PIPERACILLIN] gave an MIC (Escherichia coli [4]) of 2 µg/mL, an MIC (Escherichia coli [5]) greater than 256 µg/mL and an MIC (Klebsiella pneumoniae [6]) greater than 256 µg/mL.
In the case of CN(C)c1cc(NC(=O)CNC(C)(C)C)c(O)c2c1C[C@H]1C[C@H]3[C@H](N(C)C)C(O)=C(C(N)=O)C(=O)[C@@]3(O)C(O)=C1C2=O [TIGECYCLINE], the MIC (Escherichia coli [1]) was 0.125 µg/mL (≈ 0.213 µM), the MIC (Klebsiella pneumoniae [2]) was 0.38 µg/mL (≈ 0.649 µM) and the MIC (Escherichia coli [3]) was 0.125 µg/mL (≈ 0.213 µM).
COLISTIN was tested, and the MIC (Escherichia coli [1]) was 0.25 µg/mL, the MIC (Klebsiella pneumoniae [2]) was 0.38 µg/mL and the MIC (Escherichia coli [3]) was 0.38 µg/mL.
